Assay results published in patent US20220395472A1 (Dermavant Sciences GmbH, priority 2021, published 2022).

Tested on: adults with plaque psoriasis
Assay: Long-term open-label extension study (PSOARING 3): Physician Global Assessment (PGA), treatment episodes, treatment success, remittive effect
Assay type: in vivo, human
Details: for Average Duration of Episodes, Mean (SD) / Average Duration of Episodes, Median / Average Duration of Treatment Success, Median / Duration of 1st Episode, Mean (SD) / Duration of 1st Episode, Median / Duration of 1st Success, Mean (SD) / Duration of 1st Success, Median / Duration of 2nd Episode, Mean (SD) / Duration of 2nd Episode, Median / Duration of 2nd Success, Mean (SD) / Duration of 2nd Success, Median / Duration of 3rd Episode, Mean (SD) / Duration of 3rd Episode, Median / Duration of 3rd Success, Mean (SD) / Duration of 3rd Success, Median / Duration of 4th Episode, Mean (SD) / Duration of 4th Episode, Median / Duration of Last Episode, Mean (SD) / Duration of Last Episode, Median / Duration of Last Success, Mean (SD) / Duration of Last Success, Median / Total Duration of Treatment Episodes, Mean (SD) / Total Duration of Treatment Episodes, Median / Total Duration of Treatment Success, Mean (SD) / Total Duration of Treatment Success, Median / Average Duration of Treatment Success (treatment free interval), Mean (SD) / Average Duration of Treatment Success, Mean (SD): ITT; for Average Duration of Treatment Success (treatment free interval), Mean (SD): Overall (n=299)
Method: This extension study consisted of up to 40 weeks of treatment and a 4 week, safety follow up period.
At the completion of the Week 12 visit of the DB, pivotal Phase 3 study, eligibility of the subjects opting to enroll in this extension study was confirmed. Study visits during the treatment period for all subjects occurred every 4 weeks (±3 days). A phone call was performed at Week 2 (Day 15). Unscheduled visits may have occurred, as needed. Subjects who withdrew from this study before Week 40 returned to the study center for an Early Termination visit. The total duration of this extension study participation was 44 weeks. Subjects in this study were treated as follows based on their PGA score from the Week 12 visit in the DB, pivotal Phase 3 study (Study DMVT 505 3001 or Study DMVT 505 3002).
The PGA was used to assess the primary efficacy endpoint in this study. The PGA is a clinical tool for assessing the current state/severity of a subject's psoriasis at a given time point. It is a static, 5 point, morphological assessment of overall disease severity, as determined by the Investigator, using the clinical characteristics of erythema, scaling, and plaque thickness/elevation as guidelines; higher PGA scores represent more severe disease (0=clear, 1=almost clear, 2=mild, 3=moderate, and 4=severe). The BSA affected was not considered in scoring of the PGA. Variations of the PGA are frequently used in clinical studies because it is a simple assessment, similar to those used in clinical practice. The PGA was performed first, prior to the % BSA, PASI, and LTS assessments.
Time to event parameters, such as the time from treatment success to subsequent worsening (PGA≥2) or duration of treatment episode, were summarized by the Kaplan Meier product limit method using OC.

## CC(C)c1c(O)cc(/C=C/c2ccccc2)cc1O [Tapinarof, 3,5-Dihydroxy-4-isopropyl-trans-stilbene]
Baseline, Overall
  PGA 3 - Moderate: 249 (32.8) n (%)
  PGA 4 - Severe: 23 (3.0) n (%)
Baseline, Tapinarof (Pivotal)
  PGA 0 - Clear: 73 (14.5) n (%)
  PGA 1 - Almost Clear: 144 (28.5) n (%)
  PGA 2 - Mild: 188 (37.2) n (%)
  PGA 3 - Moderate: 93 (18.4) n (%)
  PGA 4 - Severe: 7 (1.4) n (%)
Overall
  Average Duration of Episodes, Mean (SD): 162.7 (96.20) days
  Average Duration of Episodes, Median: 168.0 days
  Average Duration of Treatment Success, Median: 84.0 days
  Duration of 1st Episode, Mean (SD): 163.1 (97.10) days
  Duration of 1st Episode, Median: 169.0 days
  Duration of 1st Success, Mean (SD): 100.0 (78.49) days
  Duration of 1st Success, Median: 84.0 days
  Duration of 2nd Episode, Mean (SD): 74.0 (55.35) days
  Duration of 2nd Episode, Median: 57.0 days
  Duration of 2nd Success, Mean (SD): 65.4 (60.68) days
  Duration of 2nd Success, Median: 41.0 days
  Duration of 3rd Episode, Mean (SD): 50.4 (41.38) days
  Duration of 3rd Episode, Median: 32.5 days
  Duration of 3rd Success, Mean (SD): 30.0 (26.46) days
  Duration of 3rd Success, Median: 28.0 days
  Duration of 4th Episode, Mean (SD): 1.0 (NE) days
  Duration of 4th Episode, Median: 1.0 days
  Duration of Last Episode, Mean (SD): 162.4 (98.51) days
  Duration of Last Episode, Median: 169.0 days
  Duration of Last Success, Mean (SD): 95.4 (82.18) days
  Duration of Last Success, Median: 64.0 days
  Total Duration of Treatment Episodes, Mean (SD): 177.6 (90.38) days
  Total Duration of Treatment Episodes, Median: 197.0 days
  Total Duration of Treatment Success, Mean (SD): 119.3 (81.80) days
  Total Duration of Treatment Success, Median: 112.0 days
  Average Duration of Treatment Success (treatment free interval), Mean (SD): 97.9 (76.60) days
Listed as tapinarof
  Average Duration of Treatment Success (treatment free interval), Mean (SD): 97.9 days
Tapinarof (Pivotal) group
  Average Duration of Episodes, Mean (SD): 157.1 (97.16) days
  Average Duration of Episodes, Median: 140.5 days
  Average Duration of Treatment Success, Mean (SD): 102.4 (77.90) days
  Average Duration of Treatment Success, Median: 84.0 days
  Duration of 1st Episode, Mean (SD): 156.6 (98.77) days
  Duration of 1st Episode, Median: 147.5 days
  Duration of 1st Success, Mean (SD): 103.0 (80.13) days
  Duration of 1st Success, Median: 84.0 days
  Duration of 2nd Episode, Mean (SD): 80.7 (58.54) days
  Duration of 2nd Episode, Median: 60.5 days
  Duration of 2nd Success, Mean (SD): 76.5 (63.07) days
  Duration of 2nd Success, Median: 56.0 days
  Duration of 3rd Episode, Mean (SD): 49.6 (52.51) days
  Duration of 3rd Episode, Median: 28.0 days
  Duration of 3rd Success, Mean (SD): 32.7 (28.40) days
  Duration of 3rd Success, Median: 28.5 days
  Duration of Last Episode, Mean (SD): 157.6 (99.25) days
  Duration of Last Episode, Median: 168.0 days
  Duration of Last Success, Mean (SD): 101.5 (83.51) days
  Duration of Last Success, Median: 82.5 days
  Total Duration of Treatment Episodes, Mean (SD): 173.2 (92.39) days
  Total Duration of Treatment Episodes, Median: 196.0 days
  Total Duration of Treatment Success, Mean (SD): 125.4 (83.22) days
  Total Duration of Treatment Success, Median: 116.5 days
Vehicle (Pivotal) group
  Average Duration of Episodes, Mean (SD): 173.4 (93.60) days
  Average Duration of Episodes, Median: 195.0 days
  Average Duration of Treatment Success, Mean (SD): 86.8 (72.58) days
  Average Duration of Treatment Success, Median: 64.0 days
  Duration of 1st Episode, Mean (SD): 175.5 (92.74) days
  Duration of 1st Episode, Median: 196.0 days
  Duration of 1st Success, Mean (SD): 92.8 (74.32) days
  Duration of 1st Success, Median: 85.0 days
  Duration of 2nd Episode, Mean (SD): 57.8 (43.31) days
  Duration of 2nd Episode, Median: 38.0 days
  Duration of 2nd Success, Mean (SD): 39.1 (45.75) days
  Duration of 2nd Success, Median: 28.0 days
  Duration of 3rd Episode, Mean (SD): 51.6 (24.51) days
  Duration of 3rd Episode, Median: 56.0 days
  Duration of 3rd Success, Mean (SD): 19.3 (15.89) days
  Duration of 3rd Success, Median: 28.0 days
  Duration of 4th Episode, Mean (SD): 1.0 (NE) days
  Duration of 4th Episode, Median: 1.0 days
  Duration of Last Episode, Mean (SD): 171.4 (96.61) days
  Duration of Last Episode, Median: 195.0 days
  Duration of Last Success, Mean (SD): 80.5 (77.32) days
  Duration of Last Success, Median: 56.0 days
  Total Duration of Treatment Episodes, Mean (SD): 185.9 (85.95) days
  Total Duration of Treatment Episodes, Median: 197.0 days
  Total Duration of Treatment Success, Mean (SD): 104.3 (76.62) days
